The supplement of paper PMC10307832

How the values were obtained:
Test in all cases: relative viability (nuclei count vs DMSO), 5 days (fraction); higher = more cells survive
NCI-H2087 = system: NCI-H2087
Outline: (§1)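 Relative viability divides the nuclei count in treated wells by that in vehicle wells. Lung cancer cell lines were seeded in 1536-well plates, dosed by pin tool the next day, and fixed and stained after 5 days in one step with final 0.05% Triton X-100, 1% formaldehyde and 1 ug/ml Hoechst. Dosing was a single drug or a fixed anchor-drug dose plus five library-drug doses (not always all listed) in √10 steps, and values are medians of duplicate plates imaged at 4×.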

BEN = system: BEN
Outline: as §1

H3255 = system: H3255
Outline: as §1

EPLC-272H = system: EPLC-272H
Outline: as §1

HCC-827 = system: HCC-827
Outline: as §1

NCI-H1666 = system: NCI-H1666
Outline: as §1

LU99A = system: LU99A
Outline: as §1

NCI-H647 = system: NCI-H647
Outline: as §1

PC-3 [JPC-3] = system: PC-3 [JPC-3]
Outline: as §1

NCI-H2342 = system: NCI-H2342
Outline: as §1

LCLC-97TM1 = system: LCLC-97TM1
Outline: as §1

NCI-H650 = system: NCI-H650
Outline: as §1

SW 1573 = system: SW 1573
Outline: as §1

LOU-NH91 = system: LOU-NH91
Outline: as §1

NCI-H1975 = system: NCI-H1975
Outline: as §1

NCI-H1437 = system: NCI-H1437
Outline: as §1

NCI-H2170 = system: NCI-H2170
Outline: as §1

NCI-H2085 = system: NCI-H2085
Outline: as §1

HCC-44 = system: HCC-44
Outline: as §1

COR-L 105 = system: COR-L 105
Outline: as §1

EKVX = system: EKVX
Outline: as §1

201T = system: 201T
Outline: as §1

Nc1ccn([C@@H]2O[C@H](CO)[C@@H](O)[C@@H]2O)c(=O)n1 [Cytarabine] + COc1cccc2cc(-c3nc([C@H]4CC[C@H](C(=O)O)CC4)n4ncnc(N)c34)[nH]c12 [OSI-027] (partner 0.5 µM)
relative viability (NCI-H2087; first compound 0.005 µM): 0.406 | relative viability (NCI-H2087; first compound 0.01581 µM): 0.485 | relative viability (NCI-H2087; first compound 0.05 µM): 0.416 | relative viability (NCI-H2087; first compound 0.1581 µM): 0.192 | relative viability (NCI-H2087; first compound 0.5 µM): 0.121 | relative viability (BEN; first compound 0.005 µM): 0.5 | relative viability (BEN; first compound 0.01581 µM): 0.315 | relative viability (BEN; first compound 0.05 µM): 0.309 | relative viability (BEN; first compound 0.1581 µM): 0.263 | relative viability (BEN; first compound 0.5 µM): 0.217 | relative viability (H3255; first compound 0.005 µM): 0.521 | relative viability (H3255; first compound 0.01581 µM): 0.579 | relative viability (H3255; first compound 0.05 µM): 0.53 | relative viability (H3255; first compound 0.1581 µM): 0.429 | relative viability (H3255; first compound 0.5 µM): 0.453 | relative viability (EPLC-272H; first compound 0.005 µM): 0.268 | relative viability (EPLC-272H; first compound 0.01581 µM): 0.28 | relative viability (EPLC-272H; first compound 0.05 µM): 0.214 | relative viability (EPLC-272H; first compound 0.1581 µM): 0.189 | relative viability (EPLC-272H; first compound 0.5 µM): 0.182 | relative viability (HCC-827; first compound 0.005 µM): 0.467 | relative viability (HCC-827; first compound 0.01581 µM): 0.348 | relative viability (HCC-827; first compound 0.05 µM): 0.265 | relative viability (HCC-827; first compound 0.1581 µM): 0.175 | relative viability (HCC-827; first compound 0.5 µM): 0.159 | relative viability (NCI-H1666; first compound 0.005 µM): 0.81 | relative viability (NCI-H1666; first compound 0.01581 µM): 0.729 | relative viability (NCI-H1666; first compound 0.05 µM): 0.798 | relative viability (NCI-H1666; first compound 0.1581 µM): 0.455 | relative viability (NCI-H1666; first compound 0.5 µM): 0.511 | relative viability (LU99A; first compound 0.005 µM): 0.287 | relative viability (LU99A; first compound 0.01581 µM): 0.271 | relative viability (LU99A; first compound 0.05 µM): 0.288 | relative viability (LU99A; first compound 0.1581 µM): 0.288 | relative viability (LU99A; first compound 0.5 µM): 0.281 | relative viability (NCI-H647; first compound 0.005 µM): 0.479 | relative viability (NCI-H647; first compound 0.01581 µM): 0.33 | relative viability (NCI-H647; first compound 0.05 µM): 0.271 | relative viability (NCI-H647; first compound 0.1581 µM): 0.105 | relative viability (NCI-H647; first compound 0.5 µM): 0.0867 | relative viability (PC-3 [JPC-3]; first compound 0.005 µM): 0.607 | relative viability (PC-3 [JPC-3]; first compound 0.01581 µM): 0.721 | relative viability (PC-3 [JPC-3]; first compound 0.05 µM): 0.727 | relative viability (PC-3 [JPC-3]; first compound 0.1581 µM): 0.499 | relative viability (PC-3 [JPC-3]; first compound 0.5 µM): 0.454 | relative viability (NCI-H2342; first compound 0.005 µM): 0.511 | relative viability (NCI-H2342; first compound 0.01581 µM): 0.591 | relative viability (NCI-H2342; first compound 0.05 µM): 0.511 | relative viability (NCI-H2342; first compound 0.1581 µM): 0.549 | relative viability (NCI-H2342; first compound 0.5 µM): 0.459 | relative viability (LCLC-97TM1; first compound 0.005 µM): 0.45 | relative viability (LCLC-97TM1; first compound 0.01581 µM): 0.37 | relative viability (LCLC-97TM1; first compound 0.05 µM): 0.439 | relative viability (LCLC-97TM1; first compound 0.1581 µM): 0.191 | relative viability (LCLC-97TM1; first compound 0.5 µM): 0.139 | relative viability (NCI-H650; first compound 0.005 µM): 0.438 | relative viability (NCI-H650; first compound 0.01581 µM): 0.424 | relative viability (NCI-H650; first compound 0.05 µM): 0.235 | relative viability (NCI-H650; first compound 0.1581 µM): 0.194 | relative viability (NCI-H650; first compound 0.5 µM): 0.206 | relative viability (SW 1573; first compound 0.005 µM): 0.735 | relative viability (SW 1573; first compound 0.01581 µM): 0.49 | relative viability (SW 1573; first compound 0.05 µM): 0.466 | relative viability (SW 1573; first compound 0.1581 µM): 0.131 | relative viability (SW 1573; first compound 0.5 µM): 0.0871 | relative viability (LOU-NH91; first compound 0.005 µM): 0.664 | relative viability (LOU-NH91; first compound 0.01581 µM): 0.739 | relative viability (LOU-NH91; first compound 0.05 µM): 0.597 | relative viability (LOU-NH91; first compound 0.1581 µM): 0.486 | relative viability (LOU-NH91; first compound 0.5 µM): 0.585 | relative viability (NCI-H1975; first compound 0.005 µM): 0.532 | relative viability (NCI-H1975; first compound 0.01581 µM): 0.775 | relative viability (NCI-H1975; first compound 0.05 µM): 0.917 | relative viability (NCI-H1975; first compound 0.1581 µM): 0.6 | relative viability (NCI-H1975; first compound 0.5 µM): 0.315 | relative viability (NCI-H1437; first compound 0.005 µM): 0.797 | relative viability (NCI-H1437; first compound 0.01581 µM): 0.584 | relative viability (NCI-H1437; first compound 0.05 µM): 0.541 | relative viability (NCI-H1437; first compound 0.1581 µM): 0.233 | relative viability (NCI-H1437; first compound 0.5 µM): 0.211 | relative viability (NCI-H2170; first compound 0.005 µM): 0.543 | relative viability (NCI-H2170; first compound 0.01581 µM): 0.513 | relative viability (NCI-H2170; first compound 0.05 µM): 0.387 | relative viability (NCI-H2170; first compound 0.1581 µM): 0.303 | relative viability (NCI-H2170; first compound 0.5 µM): 0.208 | relative viability (NCI-H2085; first compound 0.005 µM): 0.535 | relative viability (NCI-H2085; first compound 0.01581 µM): 0.735 | relative viability (NCI-H2085; first compound 0.05 µM): 0.623 | relative viability (NCI-H2085; first compound 0.1581 µM): 0.442 | relative viability (NCI-H2085; first compound 0.5 µM): 0.459 | relative viability (HCC-44; first compound 0.005 µM): 0.376 | relative viability (HCC-44; first compound 0.01581 µM): 0.461 | relative viability (HCC-44; first compound 0.05 µM): 0.413 | relative viability (HCC-44; first compound 0.1581 µM): 0.189 | relative viability (HCC-44; first compound 0.5 µM): 0.226 | relative viability (COR-L 105; first compound 0.005 µM): 0.601 | relative viability (COR-L 105; first compound 0.01581 µM): 0.587 | relative viability (COR-L 105; first compound 0.05 µM): 0.586 | relative viability (COR-L 105; first compound 0.1581 µM): 0.354 | relative viability (COR-L 105; first compound 0.5 µM): 0.224 | relative viability (EKVX; first compound 0.005 µM): 0.573 | relative viability (EKVX; first compound 0.01581 µM): 0.499 | relative viability (EKVX; first compound 0.05 µM): 0.635 | relative viability (EKVX; first compound 0.1581 µM): 0.37 | relative viability (EKVX; first compound 0.5 µM): 0.22 | relative viability (201T; first compound 0.005 µM): 0.711 | relative viability (201T; first compound 0.01581 µM): 0.782 | relative viability (201T; first compound 0.05 µM): 0.562 | relative viability (201T; first compound 0.1581 µM): 0.382 | relative viability (201T; first compound 0.5 µM): 0.272
